According to patent publication US5770604A, “Aconitine compound and an antipyretic/analgesic/anti-inflammatory agent” (priority 1994, dated 1998):

Columns and labels:
Type in all cases: in vivo, mice (Std:ddY, male)
[1] = test system: pain threshold (tail-pressure); experiment: Analgesic activity by the tail-pressure method (s.c.); settings: mouse, 10 mg/10 ml at 10 ml/kg s.c., 1 hour after administration, mean ± standard error
Experimental: (1) Measurement of Analgesic Activity by the Tail-Pressure Method
Std:ddY Strain male mice (20-25 g) were fasted for one day before the experiment, and were used. After test compounds shown in Table 1 was formed to a salt with tartaric acid, this salt was dissolved in 0.9% physiological saline solutions at the rate of 10 mg/10 ml to give the test compoun d solution . As a control, 0.9% physiological saline solution was used. A tail-pressure apparatus was used in this experiments. Before the administration of test compounds, the pain threshold was measured twice at intervals of 30 minutes and those mice indicating a pain threshold of 50 to 100 mmHg were selected and used. The pain threshold of each mouse was measured at 1 hour after test compound solution mentioned above was administered at 10 ml/kg, s.c. 0.9% Physiological saline solution as a control was administered at 10 ml/kg, s.c . The results were described as an inhibition rate (%) obtained from the following equation. Cutoff level of pressure was defined to be 230 mmHg for the prevention of the damage of mouse tail.
Inhibition rate (%)=(A-B)×100/(C-B)
A: Pain threshold (mmHg) after the administration of test compound solution
B: Pain threshold (mmHg) before the administration of test compound solution
C: Cutoff pressure (230 mmHg)

[2] = test system: pain threshold (tail-pressure); experiment: Tail-pressure method, experiment combined with morphine administration; settings: for Inhibition rate: mean ± standard error, n = 7
Experimental: (3) Experiment Combined with Morphine Administration
Std:ddY Strain male mice (20-25 g) were fasted for one day before the experiment, and were used. In this experiment, the tartaric acid salt of a compound of number (2) in Table 1 and morphine hydrochloride were used. The tartaric acid salt of a compound of number (2) was dissolved in 0.9% physiological saline solution at the rate of 7 mg/10 ml. Morphine hydrochloride was dissolved in 0.9% physiological saline solution at the rates of 5 mg/2 ml, 3 mg/2 ml and 1 mg/2 ml. As a control, 0.9% phisiological saline solution was used. A tail-pressure apparatus was used in this experiments. Before the administration of test compounds, the pain threshold was measured twice at intervals of 30 minutes and those mice indicating a pain threshold of 50 to 100 mmHg were selected and used. Mice was divided in the following four groups, (i) control group, (ii) the administration group of the tartaric acid salt of a compound of number (2), (iii) the administration group of morphine hydrochloride and (iv) the combined administration group with the tartaric acid salt of a compound of number (2) and morphine hydrochloride. In the administration group of the tartaric acid salt of a compound of number (2), 0.9% physiological saline solution of this tartaric acid salt mentioned above was injected s.c. at the rate of 10 ml/kg and, 30 minutes later, 0.9% physiological saline solution was injected i.v. at the rate of 2 ml/kg. In the administration group of morphine hydrochloride, 0.9% physiological saline solution was injected s.c. at the rate of 10 ml/kg and, 30 minutes later, the above physiological saline solution of morphine hydrochloride was injected i.v. at the rate of 2 ml/kg. In the combined administration group with the tartaric acid salt of a compound of number (2) and morphine hydrochloride,the above physiological saline solution of the tartaric acid salt of a compound of number (2) was injected s.c. at the rate of 10 ml/kg and, 30 minutes later, the above physiological saline solution of morphine hydrochloride was injected i.v. at the rate of 2 ml/kg. In control group, 0.9% physiological saline solution was injected s.c. at the rate of 10 ml/kg and, 30 minutes later, 0.9% physiological saline solution was injected i.v. at the rate of 2 ml/kg. Each pain threshold was measured 10, 20 and 30 minutes after an intravenous injection. The results were described in Table 9 as an inhibition rate (%) indicating in the preceding paragraph (1).

[3] = test system: carrageenin-induced paw edema; experiment: Antiinflammatory activity by the carrageenin-induced hind paw edema; settings: mouse, 30 mg/kg p.o., mean ± standard error, n = 6
Experimental: Measurement of Antiinflammatory Activity by the Carrageenin-Induced Hind Paw Edema
Std:ddY Strain male mice (20-25 g) were fasted for one day before the experiment, and were used. After test compounds shown in Table 1 was formed to a salt with tartaric acid, this salt was dissolved in sterilized and distilled water at the rate of 30 mg/10 ml to give the test compound solution. As a control, sterilized and distilled water was used. One hour after the oral administration of test compound solutions, 25 μl of λ-carrageenin suspended in 0.9% physiological saline solution (0.5 mg/25 μl) was injected s.c. under the plantar surface of the right hind paw of a mouse and 25 μl of 0.9% physiological saline solution was injected s.c. under the plantar surface of the left hind paw of the same mouse. Three hours and five hours after carrageenin injection, the […] of the paw was measured with a dial gauge calliper. To the control group, One hour after the oral administration of sterilized and distilled water at the rate of 10 ml/kg, 25 μl of λ-carrageenin (0.5 mg/25 μl) suspended in 0.9% physiological saline solution was injected s.c. under the plantar surface of the right hind paw of a mouse and 25 μl of 0.9% physiological saline solution was injected s.c. under the plantar surface of the left hind paw of the same mouse and the later operation was done in the same manner as in the test compound dosing group mentioned above. The results were described as a swelling rate (%) obtained from the following equation.
Swelling rate (%)=(R-L)×100/L
R: the thickness of the right hind paw
L: the thickness of the left hind paw

CCN1CC2(COC)C(O)CC(OC)C34C5CC6(O)C(OC)C(OC(C)=O)C(O)(C5C6OC(=O)c5ccc(Cl)cc5)C(C(OC)C23)C14 (stereo not shown) [(2), 15-O-acetyl-14-O-p-chlorobenzoylaconine]
Inhibition rate (tail-pressure method) [1]: 43 ± 10% | Inhibition rate ([2]; compound (2) 7 mg/kg s.c. alone (morphine 0), 10 min after i.v. injection): 30 ± 11% | Inhibition rate ([2]; compound (2) 7 mg/kg s.c. alone (morphine 0), 20 min after i.v. injection): 35 ± 12% | Inhibition rate ([2]; compound (2) 7 mg/kg s.c. alone (morphine 0), 30 min after i.v. injection): 37 ± 11% | Inhibition rate ([2]; compound (2) 7 mg/kg s.c. combined with morphine 1 mg/kg i.v., 10 min): 31 ± 12% | Inhibition rate ([2]; compound (2) 7 mg/kg s.c. combined with morphine 1 mg/kg i.v., 20 min): 36 ± 10% | Inhibition rate ([2]; compound (2) 7 mg/kg s.c. combined with morphine 1 mg/kg i.v., 30 min): 32 ± 7% | Inhibition rate ([2]; compound (2) 7 mg/kg s.c. combined with morphine 3 mg/kg i.v., 10 min): 47 ± 8% | Inhibition rate ([2]; compound (2) 7 mg/kg s.c. combined with morphine 3 mg/kg i.v., 20 min): 50 ± 9% | Inhibition rate ([2]; compound (2) 7 mg/kg s.c. combined with morphine 3 mg/kg i.v., 30 min): 38 ± 12% | Inhibition rate ([2]; compound (2) 7 mg/kg s.c. combined with morphine 5 mg/kg i.v., 10 min): 73 ± 13% | Inhibition rate ([2]; compound (2) 7 mg/kg s.c. combined with morphine 5 mg/kg i.v., 20 min): 77 ± 9% | Inhibition rate ([2]; compound (2) 7 mg/kg s.c. combined with morphine 5 mg/kg i.v., 30 min): 78 ± 9% | effect on the analgesic effect of morphine, in words ([2]; mouse, compound s.c., morphine i.v.): greatly potentiated the analgesic effect of morphine | Swelling rate ([3]; 3 hour): 40 ± 9% | Swelling rate ([3]; 5 hour): 46 ± 9%
